Reference: patent publication US5141930A, “Fused thiophene compounds and uses thereof” (Yoshitomi Pharmaceutical Industries, Ltd., priority 1990, dated 1992)
Structures can show the parent of a compound that is named as a salt.

Experiments:
[1] = biological target: T1, serotonin 1A (5-HT1A) receptor (Rattus norvegicus, UniProt P19327); test: Affinity for serotonin 1A (5-HT1A) receptor, 3H-8-OH-DPAT binding test; conditions: rat hippocampus, 0.2 nM 3H-8-OH-DPAT, pH 7.4, 37° C., 10 min
T1 sequence (P19327 1-422): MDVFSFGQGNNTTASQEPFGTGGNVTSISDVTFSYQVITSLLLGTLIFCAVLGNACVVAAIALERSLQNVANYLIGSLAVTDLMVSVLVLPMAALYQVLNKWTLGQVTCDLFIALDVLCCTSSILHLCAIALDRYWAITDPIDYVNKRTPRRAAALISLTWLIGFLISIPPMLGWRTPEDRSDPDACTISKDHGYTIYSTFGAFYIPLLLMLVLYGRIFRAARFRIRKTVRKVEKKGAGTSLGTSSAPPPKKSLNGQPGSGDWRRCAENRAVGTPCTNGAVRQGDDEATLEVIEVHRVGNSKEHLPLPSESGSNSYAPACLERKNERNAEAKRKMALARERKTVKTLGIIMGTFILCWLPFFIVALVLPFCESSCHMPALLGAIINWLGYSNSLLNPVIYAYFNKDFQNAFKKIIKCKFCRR
Procedure: Affinity for serotonin 1A (5-HT1A) receptor [^3 H-8-Hydroxy-2-dipropylaminotetralin (^3 H-8-OH-DPAT) binding test]
Preparation of crude synaptosome fraction and binding assay were conducted in accordance with the method reported in Journal of Neurochemistry, vol. 44, page 1685, 1985 by Hall et al. Freezed hippocampus dissected out from rats were homogenized in 40 volumes of ice-cold 50 mM Tris-HCl buffer (pH 7.4) and the suspension was centrifuged at 500×g for 10 minutes at 0° C. The supernatant was centrifuged at 40,000×g for 20 minutes at 0° C. and the resulting pellet was homogenized in 40 volumes of the above buffer and incubated at 37° C. for 10 minutes. After completion of reaction, the suspension was centrifuged at 40,000×g for 20 minutes at 0° C. The resulting pellet was washed twice by resuspension in 40 volumes of the above buffer and centrifugation, and finally suspended in 60 volumes of ice-cold 50 mM Tris-HCl buffer (pH 7.4) containing 1 mM manganese chloride for use in the next assay.
To the aliquots (900 μl) of synaptosome membranes solution were added 50 μl of tritiated 8-OH-DPAT solution at the terminal concentration of 0.2 nM and 50 μl of test compound solution or 50 μl of its medium, and incubated at 37° C. for 10 minutes. Then, to the mixture was added 5 ml of ice-cold 50 mM Tris-HCl buffer (pH 7.4), rapidly vacuum-filtered through Whatman GF/B filters and washed twice with 5 ml of the same buffer. The radioactivity of the residue remaining on the filters was measured by liquid scintillation counter. Nonspecific binding was determined under the presence of 10^-5 M serotonin (5-HT). 50% Inhibition concentration (IC50) of the test compound was graphically determined and the inhibition constant (Ki value) was calculated.

[2] = biological target: T2, serotonin 2 (5-HT2) receptor (Rattus norvegicus, UniProt P14842); test: Affinity for serotonin 2 (5-HT2) receptor, 3H-Ketanserin binding test; conditions: rat cerebral cortex, 0.2 nM 3H-Ketanserin, pH 7.7, 37° C., 20 min
T2 construct: Freezed cerebral cortex dissected out from rats were homogenized; from tissue; host or cells: rat cerebral cortex, crude synaptosome fraction
T2 sequence (P14842 whole entry): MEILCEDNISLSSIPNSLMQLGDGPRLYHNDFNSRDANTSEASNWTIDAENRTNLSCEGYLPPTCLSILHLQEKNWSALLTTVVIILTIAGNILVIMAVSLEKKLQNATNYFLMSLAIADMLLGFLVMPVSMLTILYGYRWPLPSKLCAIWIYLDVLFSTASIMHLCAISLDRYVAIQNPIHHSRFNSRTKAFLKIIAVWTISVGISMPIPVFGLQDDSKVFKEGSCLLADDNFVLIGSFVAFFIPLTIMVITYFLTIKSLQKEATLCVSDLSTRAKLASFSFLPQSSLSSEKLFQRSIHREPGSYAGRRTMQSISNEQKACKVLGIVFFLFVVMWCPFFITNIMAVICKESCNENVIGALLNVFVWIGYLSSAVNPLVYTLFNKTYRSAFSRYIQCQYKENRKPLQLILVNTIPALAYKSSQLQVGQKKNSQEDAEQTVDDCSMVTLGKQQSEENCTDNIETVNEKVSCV
Procedure: Affinity for serotonin 2 (5-HT2) receptor (^3 H-Ketanserin binding test)
Preparation of crude synaptosome fraction and binding assay were conducted according to the method reported in Molecular Pharmacology, vol. 21, page 301, 1981 by Leysen et al.
Freezed cerebral cortex dissected out from rats were homogenized in 30 volumes of ice-cold 0.32 M sucrose solution and the suspension was centrifuged at 1000×g for 10 minutes at 10° C. The supernatant was centrifuged at 40,000×g for 20 minutes at 0° C. and the resulting pellet was homogenized in 30 volumes of ice-cold 50 mM Tris-HCl buffer (pH 7.7), and incubated at 37° C. for 10 minutes. The suspension was centrifuged at 40,000×g for 20 minutes at 0° C. again. The resulting pellet was homogenized in 100 volumes of the above buffer and provided as synaptosome membranes solution for the next assay.
To the aliquots (900 μl) of synaptosome membranes solution were added 50 μl of ^3 H-Ketanserin solution at the terminal concentration of 0.2 nM and 50 μl of test compound solution or 50 μl of its medium, and incubated at 37° C. for 20 minutes. After completion of the reaction, the mixture was rapidly vacuum-filtered through Whatman GF/B filters. The filters were washed three times with 5 ml of the above buffer, and then the radioactivity of the residue remaining on the filters was measured by liquid scintillation counter. Nonspecific binding was determined under the presence of 10 μM of mianserin. 50% Inhibition concentration (IC50) of the test compound was graphically determined and the inhibition constant (Ki value) was calculated.

[3] = biological target: dopamine 2 (D2) receptor (Rattus norvegicus, UniProt P61169); test: Affinity for dopamine 2 (D2) receptor, 3H-Spiperone binding test; conditions: rat corpus striatum, 0.2 nM 3H-Spiperone, pH 7.1, 37° C., 20 min
Sequence of dopamine 2 (D2) receptor (P61169 whole entry): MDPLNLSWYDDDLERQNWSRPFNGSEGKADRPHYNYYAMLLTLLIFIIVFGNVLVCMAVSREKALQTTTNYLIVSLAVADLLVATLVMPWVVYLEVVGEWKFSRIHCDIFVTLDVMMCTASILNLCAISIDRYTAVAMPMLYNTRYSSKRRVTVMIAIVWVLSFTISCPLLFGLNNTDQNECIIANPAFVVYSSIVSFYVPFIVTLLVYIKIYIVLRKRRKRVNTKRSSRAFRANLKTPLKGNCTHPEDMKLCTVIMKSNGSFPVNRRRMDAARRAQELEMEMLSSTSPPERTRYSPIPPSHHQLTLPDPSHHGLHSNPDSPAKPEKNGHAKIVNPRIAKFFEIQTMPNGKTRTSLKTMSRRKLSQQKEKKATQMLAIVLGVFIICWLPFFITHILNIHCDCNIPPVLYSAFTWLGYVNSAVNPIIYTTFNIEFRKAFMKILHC

[4] = system: Wistar rats; test: Anxiolytic effect (Vogel type conflict test); assay type: in vivo; conditions: Rattus norvegicus, po; orally 1 hour before test; lowest dose significantly different from 0.5% MC control, P<0.05; read-out: Anxiolytic effect MED (minimum effective dose)
Procedure: Anxiolytic effect (Vogel type conflict test) The test was conducted according to the method of Vogel et al. Wistar rats deprived of water for 72 hours before the test were used. The rats were placed in a plexiglas conflict test box (light compartment: 38×38×20 cm, dark compartment: 10×10×20 cm). A water bottle with a stainless steel spout was fitted to the middle of the outside, so that the spout extended 3 cm into the box at a height of 10 cm above the grid floor. A drinkometer circuit (Ohara Inc., Nihon Koden) was connected with the spout and the number of licks were counted. The rat was placed into the apparatus where an electric shock (0.2-0.3 mA, 0.3 sec) was given once every 20th lick. After the rat received first electric shock, the number of shocks were recorded during the subsequent 3 min. test period. The test compounds were administered orally 1 hour before the test. The minimum effective dose (MED) was defined as the lowest dose producing a statistically significant difference between 0.5% MC-treated (control) and test drug treated punished responses (One-way ANOVA test; P<0.05).

[5] = system: serotonin 1A receptor; conditions: background statement; cited from earlier work
[6] = system: benzodiazepine receptor; conditions: background statement; cited from earlier work
[7] = system: serotonin 1A receptor; conditions: by an interaction with serotonin 1A receptor; cited from earlier work
[8] = system: serotonin 1A receptor of medulla oblongata; conditions: through serotonin 1A receptor of medulla oblongata; cited from earlier work

## Cc1cc2c(s1)CCCN(CCCCN1CCN(c3ncccn3)CC1)C2=O [15 (hydrochloride)]
[1]
  Ki: 2.1 nM
[2]
  Ki: 1500 nM
[3]
  Ki: 140 nM
[4]
  minimal effective dose: 2.5 mg/kg

## O=C1c2cc(Br)sc2SCCN1CCCCN1CCN(c2ncccn2)CC1 [Example 107, 7-bromo-2,3-dihydro-4-[4-(4-(2-pyrimidinyl)-1-piperazinyl)butyl]thieno[3,2-f]-1,4-thiazepin-5(4H)-one fumarate 1/2 hydrate]
[1]
  Ki: 1.5 nM
[2]
  Ki: 990 nM
[3]
  Ki: 120 nM

## O=C1CC2(CCCC2)CC(=O)N1CCCCN1CCN(c2ncccn2)CC1 [buspirone]
[5]
  affinity for serotonin 1A receptor: high affinity
[6]
  binding to benzodiazepine receptor: not to bind
[7]
  antianxietic action: exhibits antianxietic action

## Cc1cc2c(s1)CCCN(CCCCNCC1COc3ccccc3O1)C2=O.Cl (centres unmarked) [Example 163, 5-[4-((1,4-Benzodioxan-2-yl)methylamino)butyl]-2-methyl-5,6,7,8-tetrahydro-4H-thieno[3,2-c]azepin-4-one hydrochloride]
[1]
  Ki: 0.15 nM
[2]
  Ki: 1200 nM
[3]
  Ki: 6.2 nM
[4]
  minimal effective dose: 2.5 mg/kg

## CCc1cc2c(s1)SCCN(CCCCN1CCN(c3ncccn3)CC1)C2=O [Example 121, 7-ethyl-2,3-dihydro-4-[4-(4-(2-pyrimidinyl)-1-piperazinyl)thieno[3,2-f]-1,4-thiazepin-5(4H)-one hydrochloride 3/2 hydrate]
[1]
  Ki: 1.4 nM
[2]
  Ki: 1100 nM
[3]
  Ki: 150 nM

## CCCN(CCC)C1CCc2cccc(O)c2C1 (centres unmarked) [8-hydroxy-2-dipropylaminotetralin]
[5]
  affinity for serotonin 1A receptor: high affinity
[8]
  effect on blood pressure: lowers blood pressure

## CC(=O)c1cc2c(s1)SCCN(CCCCN1CCN(c3ncccn3)CC1)C2=O [Example 117, 7-acetyl-2,3-dihydro-4-[4-(4-(2-pyrimidinyl)-1-piperazinyl)butyl]thieno[3,2-f]-1,4-thiazepin-5(4H)-one]
[1]
  Ki: 4.1 nM
[2]
  Ki: 1800 nM
[3]
  Ki: 270 nM
[4]
  minimal effective dose: 5 mg/kg

## O=C1c2cc(Br)sc2CCCN1CCCCN1CCN(c2ncccn2)CC1 [Example 11, 2-Bromo-5-[4-(4-(2-pyrimidinyl)-1l-piperazinyl)butyl]-5,6,7,8-tetrahydro-4H-thieno[3,2-c]azepin-4-one fumarate]
[1]
  Ki: 0.89 nM
[2]
  Ki: 900 nM
[3]
  Ki: 100 nM

## CCc1cc2c(s1)CCCN(CCCCN1CCN(c3ncccn3)CC1)C2=O.O=C(O)/C=C/C(=O)O [Example 46, 2-ethyl-5-[4-(4-(2-pyrimidinyl)-1-piperazinyl)butyl]-5,6,7,8-tetrahydro-4H-thieno[3,2-c]azepin-4-one fumarate]
[1]
  Ki: 1.3 nM
[2]
  Ki: 990 nM
[3]
  Ki: 78 nM
[4]
  minimal effective dose: ≤ 1 mg/kg

## CC(O)c1cc2c(s1)CCCN(CCCCN1CCN(c3ncccn3)CC1)C2=O.O=C(O)/C=C\C(=O)O (centres unmarked) [Example 155, 2-(1-Hydroxyethyl)-5-[4-(4-(2-pyrimidinyl)-1-piperazinyl)butyl]-5,6,7,8-tetrahydro-4H-thieno[3,2-c]azepin-4-one maleate]
[1]
  Ki: 0.81 nM
[2]
  Ki: 2100 nM
[3]
  Ki: 170 nM
[4]
  minimal effective dose: 2.5 mg/kg

## CC(=O)c1cc2c(s1)CCCN(CCCCN1CCN(c3ncccn3)CC1)C2=O [13 (maleate)]
[1]
  Ki: 1.6 nM
[2]
  Ki: 1400 nM
[3]
  Ki: 190 nM
[4]
  minimal effective dose: 1 mg/kg

## O=C1c2ccsc2SCCN1CCCCN1CCN(c2ncccn2)CC1 [Example 103, 2,3-dihydro-4-[4-(4-(2-pyrimidinyl)-1-piperazinyl)butyl]thieno[3,2-f]-1,4-thiazepin-5( (4H)-one fumarate]
[1]
  Ki: 5.2 nM
[2]
  Ki: 1800 nM
[3]
  Ki: 1800 nM
